Columns and labels:
SARS-CoV-2 [1] = settings: in vivo
SARS-CoV-2 [2] = test system: SARS-CoV-2

CC(C)C(=O)OC[C@H]1O[C@@H](n2ccc(NO)nc2=O)[C@H](O)[C@@H]1O [Compound A, {(2R,3S,4R,5R)-3,4-dihydroxy-5-[4-(hydroxyimino)-2-oxo-3,4-dihydropyrimidin-1 (2H)-yl]oxolan-2-yl}methyl 2-methylpropanoate]
participants hospitalized or died through Day 29 (SARS-CoV-2 [1]): ~3%
percentage of mutations in viral RNA post-treatment at Day 5 (SARS-CoV-2 [1]): highest percentage of mutations
mean SARS-CoV-2 viral RNA mutation rates per 10,000 nucleotides (SARS-CoV-2 [2]; 800 mg, end of therapy): 5.9 per 10,000 nucleotides
Drug-related adverse events (SARS-CoV-2 [2]; human, in vivo): 11.0%
